Reference: patent US20030114512A1, “Compounds with 5-ht2 and 5-ht1a agonist activity for treating glaucoma” (priority 2002, published 2003)
pEC50, pIC50: −log10 of the molar value. Read-outs that look alike come from different tables or passages of the source.

What was measured:
5-HT2 receptor = target: T1, 5-HT2 receptor (Rattus norvegicus, UniProt P14842); experiment: 5-HT2 functional assay: phosphoinositide (PI) turnover; format: cell-based; details: for Emax: A7r5 cells, relative to 5-HT set at 100%, read-out: Efficacy (Emax, %) 5-HT2 functional
T1 construct: A7r5 rat vascular smooth muscle cells; endogenous in cells; host or cells: A7r5 rat vascular smooth muscle cells
T1 sequence (P14842 whole entry): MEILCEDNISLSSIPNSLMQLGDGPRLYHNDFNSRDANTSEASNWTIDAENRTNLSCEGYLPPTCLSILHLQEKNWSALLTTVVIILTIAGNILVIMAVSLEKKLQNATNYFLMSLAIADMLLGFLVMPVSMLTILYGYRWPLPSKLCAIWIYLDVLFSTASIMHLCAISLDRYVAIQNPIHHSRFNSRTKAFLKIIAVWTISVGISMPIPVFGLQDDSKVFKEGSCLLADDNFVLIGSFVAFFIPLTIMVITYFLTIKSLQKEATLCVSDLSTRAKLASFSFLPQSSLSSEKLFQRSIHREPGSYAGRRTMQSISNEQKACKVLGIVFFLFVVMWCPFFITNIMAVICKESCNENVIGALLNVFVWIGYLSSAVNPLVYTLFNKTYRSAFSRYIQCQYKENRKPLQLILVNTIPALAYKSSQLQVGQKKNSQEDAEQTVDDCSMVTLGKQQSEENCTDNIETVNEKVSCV
Protocol: 5-HT2 Functional Assay: Phosphoinositide (PI) Turnover Assay
The relative agonist activity of serotonergic compounds at the 5-HT2 receptor can be determined in vitro using the ability of the compounds to stimulate the production of [^3H]inositol phosphates in [^3H]myo-inositol-labeled A7r5 rat vascular smooth muscle cells by their ability to activate the enzyme phospholipase C. These cells are grown in culture plates, maintained in a humidified atmosphere of 5% CO2 and 95% air and fed semi-weekly with Dulbecco's modified Eagle medium (DMEM) containing 4.5 g/l glucose and supplemented with 2 mM glutamine, 10 μg/ml gentamicin, and 10% fetal bovine serum. For the purpose of conducting the phosphoinositide (PI) turnover experiments, the A7r5 cells are cultured in 24-well plates as previously [J. Pharmacol. Expt. Ther., 286, 411 (1998)]. Confluent cells are exposed for 24-30 hrs to 1.5 μCi [^3H]-myo-inositol (18.3 Ci/mmol) in 0.5 ml of serum-free medium. Cells are then rinsed once with DMEM/F-12 containing 10 mM LiCl prior to incubation with the test agent (or solvent as the control) in 1.0 ml of the same medium for 1 hr at 37° C., after which the medium is aspirated and 1 ml of cold 0.1 M formic acid added to stop the reaction. The chromatographic separation of [^3H]-inositol phosphates ([^3H]-IPs) on an AG-1-X8 column is performed as previously described [J. Pharmacol. Expt. Ther. 286, 411 (1998)] with sequential washes with H2O and 50 mM ammonium formate, followed by elution of the total [^3H]-IPs fraction with 1.2 M ammonium formate containing 0.1 M formic acid. The eluate (4 ml) is collected, mixed with 15 ml scintillation fluid, and the total [^3H]-IPs determined by scintillation counting on a beta counter. Concentration-response data are analyzed by the sigmoidal fit function of the Origin Scientific Graphics software (Microcal Software, Northampton, Mass.) to determine agonist potency (EC50 value) and efficacy (Emax). Serotonin (5-HT) is used as a positive control (standard) agonist compound and the efficacy of test compounds is compared to that of 5-HT (set at 100%). The concentration of the compound needed to stimulate the production of [^3H]-IPs by 50% of the maximum response is termed the EC50 value.

[1] = target: T2, human cloned 5-HT1A receptors (Homo sapiens, UniProt P08908); experiment: 5-HT1A receptor binding assay ([3H]8-OH-DPAT)
T2 construct: purchased NEN (manufactured by Biosignal, Inc., Montreal, Canada); host or cells: CHO cells (membranes)
T2 sequence (P08908 1-422): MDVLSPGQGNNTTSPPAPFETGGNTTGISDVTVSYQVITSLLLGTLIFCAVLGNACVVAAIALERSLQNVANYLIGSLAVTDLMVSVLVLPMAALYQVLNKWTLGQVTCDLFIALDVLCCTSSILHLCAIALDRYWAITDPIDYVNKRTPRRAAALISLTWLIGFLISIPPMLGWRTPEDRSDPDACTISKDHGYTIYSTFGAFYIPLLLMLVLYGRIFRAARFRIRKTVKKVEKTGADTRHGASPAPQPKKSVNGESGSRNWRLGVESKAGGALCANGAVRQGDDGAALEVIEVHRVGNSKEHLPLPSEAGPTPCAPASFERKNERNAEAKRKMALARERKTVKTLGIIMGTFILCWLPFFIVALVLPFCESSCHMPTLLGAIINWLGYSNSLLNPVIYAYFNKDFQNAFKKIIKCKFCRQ
Protocol: 5-HT1A Receptor Binding Assay
5-HT1A binding studies were performed with human cloned receptors expressed in Chinese hamster ovary (CHO) cells using (^3H)8-OH DPAT as the ligand. Membranes from Chinese hamster ovary cells (CHO) expressing cloned 5-HT1A receptors (manufactured for NEN by Biosignal, Inc., Montreal, Canada) were homogenized in approximately 40 volumes of 50 mM Tris pH 7.4 for 5 sec. Drug dilutions were made using a Beckman Biomek 2000 robot (Beckman Instruments, Fullerton, Calif.). Incubations were conducted with membrane prep, test compounds, and 0.25 nM [^3H]8-OH-DPAT (NEN, Boston, Mass.) in the same buffer at 27° C. for 1 h. Assays were terminated by rapid vacuum filtration over Whatman GF/B glass fiber filters pre-soaked in 0.3% polyethyleneimine. Bound radioactivity was measured using liquid scintillation spectrometry. Data were analyzed using non-linear curve fitting programs (Sharif et al., J. Pharmac. Pharmacol. 51: 685-694, 1999).
Ligand binding studies can also be run using membrane preparations from calf and rat brain (local source) and human cortex membranes. Specific brain regions were dissected out, homogenized in 10 volumes of 0.32 M sucrose and centrifuged for 10 min at 700×g. The resulting supernatant was centrifuged at 43,500×g for 10 min and the pellet re-suspended in 50 mM Tris-HCl (pH 7.7, 25° C.) using a 10 sec polytron treatment. Aliquots were stored at −140° C. To remove endogenous serotonin, the preps were incubated at 37° C. for 10 min prior to the experiment. Assay incubations were terminated by rapid filtration over Whatman GF/C filters using a Brandel cell harvester. Ki values were calculated using the Cheng-Prusoff equation (De Vry et al., J. Pharm. Exper. Ther. 284:1082-1094, 1998.)

[2] = test system: photooxidative induced retinopathy; experiment: Neuroprotective effects in the rat photooxidative induced retinopathy model (ERG); format: in vivo, Sprague Dawley rat; details: for A-wave Amplitude Mean / B-wave Amplitude Mean: ERG after five day recovery
Protocol: Neuroprotective Effects in the Rat Photooxidative Induced Retinopathy Model
Male Sprague Dawley rats were randomly assigned to vehicle treatment (saline) or drug treatment (dissolved in saline) experimental groups. α-methyl-5-hydroxytryptamine (1, 5, and 10 mg/kg) or vehicle was administered by subcutaneous (SC) injection at 48, 24, and 0 hours prior to light exposure and once 24 hours after a 6-hour light exposure to spectrally filtered blue light (˜220 fc). Control rats were housed in their home cage under normal cyclic light exposure. Rats were single housed in clear polycarbonate cages during this light exposure.
The electroretinogram (ERG) was recorded after a five day recovery period from dark-adapted anesthetized rats (Ketamine-HCl, 75 mg/Kg; Xylazine, 6 mg/Kg). The eye's electrical response to a flash of light was elicited by viewing a ganzfeld. ERGs to a series of light flashes increasing in intensity were digitized to analyze temporal characteristics of the waveform and determine the response voltage-log intensity (VlogI) relationship. Changes in the ERG a-wave are associated with photoreceptor and retinal pigment epithelium damage while damage to the inner retina is reflected in changes in the ERG b-wave.

SMILES: CC(N)Cn1ccc2ccc(O)cc21.O=C(O)/C=C/C(=O)O (centres unmarked) [1-(2-aminopropyl) 6-hydroxyindole fumarate]
- Emax (5-HT2 receptor): 86%
- EC50 (5-HT2 receptor; [3H]inositol phosphates, A7r5 rat vascular smooth muscle cells, read-out: EC50, nM (SEM) 5-HT2 functional): 577 nM
- IC50 ([1]; [3H]8-OH-DPAT, CHO cell membranes, read-out: IC50, nM (SEM) 5-HT1A receptor binding): 111 nM

SMILES: CC(N)Cc1c[nH]c2ccc(O)cc12.O=C(O)/C=C\C(=O)O (stereo not drawn) [α-Methyl 5-hydroxytryptamine maleate, 3-(2-aminopropyl)-1H-indol-5-ol]
- Emax (5-HT2 receptor): 104%
- Maximum a- and b-wave response amplitudes compared with vehicle dosed rats ([2]; 1.0 mg/kg): not significantly different than vehicle dosed rats
- Maximum a- and b-wave response amplitudes, % of control animals ([2]; 1.0 mg/kg): approximately 30%
- A-wave Amplitude Mean ([2]; 1.0 mg/kg SC): 237.8 μV
- B-wave Amplitude Mean ([2]; 1.0 mg/kg SC): 555 μV
- A-wave Amplitude Mean ([2]; 5.0 mg/kg SC): 471.93 μV
- B-wave Amplitude Mean ([2]; 5.0 mg/kg SC): 1123 μV
- A-wave Amplitude Mean ([2]; 10.0 mg/kg SC): 477.7 μV
- B-wave Amplitude Mean ([2]; 10.0 mg/kg SC): 1126 μV
- Protection of retina function against photo-oxidative induced retinopathy ([2]; 1, 5 and 10 mg/kg SC): dose-dependent protection of outer and inner retina function
- Maximum a- and b-wave response amplitudes compared with vehicle dosed rats ([2]; 5 and 10 mg/kg): significantly higher than responses measured in vehicle dosed rats
- Maximum a-wave response amplitude, % of control animals ([2]; 5 and 10 mg/kg, first of 'respectively' values): approximately 58%
- Maximum b-wave response amplitude, % of control animals ([2]; 5 and 10 mg/kg, second of 'respectively' values): ~62%
- pIC50 [1]: 7.65

SMILES: COc1ccc2[nH]cc(CC(C)N)c2c1.O=C(O)/C=C/C(=O)O (stereo not drawn) [α-Methyl 5-methoxytryptamine fumarate]
- pEC50 (5-HT2 receptor): 6.69
- Emax (5-HT2 receptor): 81%
- pIC50 [1]: 7.58
